Assay results as given in patent publication US11773127B2, “Compounds and methods for treating bacterial infections” (Washington University, priority 2017, dated 2023).
Like-named read-outs stand apart in the source and are kept apart here.

Molecular target: T1, FmlHLD (Escherichia coli, UniProt P77588)
T1 construct: 6xHis (C); made in house; host or cells: E. coli C600, periplasm, pTRC99a
Assay: biochemical
Assay type: binding, E. coli
Settings: for inhibition at 10 µM: read-out: % Inhibition at [μM] [10], compound at 10 μM; for inhibitory potency against FmlH, in words: ELISA-based competition assay; for IC50: IC50 (μM), Table 5, Gal and GalNAc inhibition of FmlH
Protocol: Thereafter, wells were incubated with 200 μl blocking buffer (PBS+1% BSA) for 2 hours at 23° C., followed by incubation with 100 μl biotinylated FmlHLD diluted in blocking buffer to 20 μg/ml in the presence or absence of the tested compounds for 1 hr at 23° C. After washing 3× with PBS+0.05% TWEEN-20, 100 μl Streptavidin-HRP conjugate (BD Biosciences; 1:2000 dilution in blocking buffer) was added to each well for 1 hr at 23° C. After a final round of washing, plates were developed with 100 μl Tetramethylbenzidine (TMB, BD Biosciences) substrate, quenched within 1-2 min with 50 μl […], and absorbance measured at 450 nm.
Select top hit compounds and few low-scoring analogs from the virtual screening, as well as synthetic galactosides, were tested in the ELISA-based competition assay for their ability to inhibit binding of FmlHLD to ds-BSM. The ELISA assay was performed using the protocol described in Example 18. […] All compounds were tested at 100 μM; a subset was tested at 10 μM; and the strongest subset was additionally tested at 1 μM. […] Percent inhibition (PI) values are reported as the mean with standard error of the mean for galactosides tested at 100 μM (PI100), 10 μM (PI10), and 1 μM (PI1) in the ELISA-based competition assay. […] The “thio” designation indicates a sulfur linkage between the sugar and the aglycone group, the “phospho” designation indicates a phosphate group attached the C6-hydroxyl group on the sugar, and the “uro” designation indicates galacturonide as the sugar.
The ELISA assay was performed using the protocol described in Example 18. All compounds were tested at 1 μM and a subset was additionally tested at 100 nM. Average percent inhibition (PI) values are reported for compounds tested at 1 μM (PI1) and 100 nM (PI0.1).
Briefly, 1 μg bovine submaxillary mucin (Sigma) in 100 uL PBS were incubated with Immulon 4HBX 96-well plates overnight prior to treatment with 1 mU Arthrobacter ureafaciens sialidase for 1 hour at 37° C. to remove terminal sialic acid sugars. Wells were then blocked with 200 μL PBS+1% BSA for 2 hours at room temperature. Biotinylated FmlH^LD was diluted to 20 μg/mL in blocking buffer and incubated in the presence or absence of compounds serially diluted 2× down eight rows for 1 hour at room temperature. Wells were washed three times with PBS 0.05% TWEEN-20 then incubated with 100 μL of streptavidin-HRP conjugate (BD Biosciences; 1:2,000 dilution in blocking buffer) for one hour. After three additional PBS+0.05% TWEEN washes, plates were developed with 100 μL of tetramethylbenzidine (BD Biosciences) substrate and quenched with 50 μL of 1 M H2SO4. Total bound portion concentration was measured by the absorbance at 450 nm. IC50s were determined using the Graphpad Prism software.
The compounds synthesized herein were tested in the ELISA-based competition assay for their ability to inhibit binding of FmlHLD to ds-BSM. The ELISA assay was performed using the protocol described in Example 18. Compounds were tested at […], 1 μM, and 100 nM. as indicated on the table. […] ND means the corresponding value was not determined for this summary (but may be available elsewhere in the Examples).

[1] = read-out: % Inhibition at [μM] [1], compound at 1 μM, inhibition of FmlHLD binding to ds-BSM
[2] = read-out: PI(1) (average percent inhibition), compound at 1 μM, Table 4
[3] = inhibition of FmlHLD binding to ds-BSM
[4] = read-out: % Inhibition at [μM] [100], compound at 100 μM, inhibition of FmlHLD binding to ds-BSM

T1 sequence (P77588 25-182): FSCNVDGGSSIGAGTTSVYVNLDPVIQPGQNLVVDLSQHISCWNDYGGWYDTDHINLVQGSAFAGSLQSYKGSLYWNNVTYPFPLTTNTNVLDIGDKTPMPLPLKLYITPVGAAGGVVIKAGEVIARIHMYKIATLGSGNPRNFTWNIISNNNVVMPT

SMILES | inhibition at 1 µM [1] [%] | inhibition at 1 µM [2] [%] | inhibition at 10 µM [3] [%] | inhibition at 100 µM [4] [%] | inhibition at 100 µM (read-out: PI100 (percent inhibition), galactoside at 100 μM, mean with standard error of the mean) [%] | inhibitory potency against FmlH, in words | IC50 [µM]
CC(=O)N[C@H]1[C@H](Oc2cccc3ccncc23)O[C@H](CO)[C@H](O)[C@@H]1O (stereo in doubt) [AM1186] | 23.5 | 23.5 | – | – | – | – | –
OC[C@H]1O[C@@H](Oc2ccc3ccccc3c2)[C@H](O)[C@@H](O)[C@H]1O [2-napthyl Gal, reference compound] | – | – | 14.6 | 78.8 | – | – | –
OC[C@H]1O[C@@H](SCCc2ccccc2)[C@H](O)[C@@H](O)[C@H]1O [2-phenylethyl-thio-galactoside, reference compound] | – | – | 2.31 | 49.9 | – | – | –
OC[C@H]1O[C@@H](Oc2c[nH]c3ccccc23)[C@H](O)[C@@H](O)[C@H]1O [3-indoxyl Gal, reference compound] | – | – | – | 21.7 | – | – | –
Nc1ccc(O[C@@H]2O[C@H](CO)[C@H](O)[C@H](O)[C@H]2O)cc1 [4-amino-phenyl Gal, reference compound] | – | – | 9.8 | 65.1 | – | – | –
CC(C)S[C@@H]1O[C@H](CO)[C@H](O)[C@H](O)[C@H]1O [36β-thio (IPTG), reference compound] | – | – | – | – | 23.7 ± 5.3 | – | –
CC(=O)N[C@@H]1[C@@H](O)[C@@H](O)[C@@H](CO)O[C@H]1N(CC(=O)NC(C)(C)C)C(=O)c1cccc2cccnc12 [AM1165, N-((2R,3R,4R,5R,6R)-3-acetamido-4,5-dihydroxy-6-(hydroxymethyl)tetrahydro-2H-pyran-2 yl)-N-(2-“(tert-butylamino)-2-oxoethyl)quinoline-8-carboxamide] | 5.57 | 5.57 | – | – | – | – | –
CC(=O)N[C@H]1[C@H](Oc2cccc3cccnc23)O[C@H](CO)[C@H](O)[C@@H]1O [AM1176] | 21 | 21 | – | – | – | – | –
CC(=O)N[C@H]1[C@H](Oc2cccc3ccc(C)nc23)O[C@H](CO)[C@H](O)[C@@H]1O [AM1179, N-((2S,3R,4R,5R,6R)-4,5-dihydroxy-6-(hydroxymethyl)-2-((2-methylquinolin-8-yl)oxy)tetrahydro-2H-pyran-3-yl)acetamide] | 25.2 | 25.2 | – | – | – | – | –
CC(=O)N[C@H]1[C@H](Oc2ccc3cccnc3c2)O[C@H](CO)[C@H](O)[C@@H]1O [AM1180, N-((2S,3R,4R,5R,6R)-4,5-dihydroxy-6-(hydroxymethyl)-2-(quinolin-7-yloxy)tetrahydro-2H-pyran-3-yl)acetamide] | 15.4 | 15.4 | – | – | – | – | –
CC(C)(C)NC(=O)CN(C(=O)c1cccc2cccnc12)[C@@H]1O[C@H](CO)[C@H](O)[C@H](O)[C@H]1O [AM1181, N-(2-(tert-butylamino)-2-oxoethyl)-N-((2R,3R,4S,5R,6R)-3,4,5-trihydroxy-6-(hydroxymethyl)tetrahydro-2H-pyran-2-yl)quinoline-8-carboxamide] | 10.8 | 10.8 | – | – | – | – | –
CC(=O)N[C@H]1[C@H](Oc2ccc3ncccc3c2)O[C@H](CO)[C@H](O)[C@@H]1O [AM1184, N-((2S,3R,4R,5R,6R)-4,5-dihydroxy-6-(hydroxymethyl)-2-(quinolin-6-yloxy)tetrahydro-2H-pyran-3-yl)acetamide] | 7.56 | 7.56 | – | – | – | – | –
CNC(=O)c1cccc(-c2ccccc2O[C@@H]2O[C@H](CO)[C@H](O)[C@H](O)[C@H]2NC(C)=O)c1 [AM1189, 2′-(((2S,3R,4R,5R,6R)-3-acetamido-4,5-dihydroxy-6-(hydroxymethyl)tetrahydro-2H-pyran-2-yl)oxy)-N-methyl-[1,1′-biphenyl]-3-carboxamide] | 12.3 | 12.3 | – | – | – | equal or slightly reduced potency | 3.36
CC(=O)N[C@H]1[C@H](Oc2cccc3c(C)ccnc23)O[C@H](CO)[C@H](O)[C@@H]1O [AM1192, N-((2S,3R,4R,5R,6R)-4,5-dihydroxy-6-(hydroxymethyl)-2-((4-methylquinolin-8-yl)oxy)tetrahydro-2H-pyran-3-yl)acetamide] | 16.8 | 16.8 | – | – | – | – | –
CC(=O)N[C@H]1[C@H](Oc2ccc3ccncc3c2)O[C@H](CO)[C@H](O)[C@@H]1O [AM2002, N-((2S,3R,4R,5R,6R)-4,5-dihydroxy-6-(hydroxymethyl)-2-(isoquinolin-7-yloxy)tetrahydro-2H-pyran-3-yl)acetamide] | 20.2 | 20.2 | – | – | – | – | –
CC(=O)N[C@H]1[C@H](Oc2cccc3cc4ccccc4nc23)O[C@H](CO)[C@H](O)[C@@H]1O [AM2003, N-((2S,3R,4R,5R,6R)-2-(acridin-4-yloxy)-4,5-dihydroxy-6-(hydroxymethyl)tetrahydro-2H-pyran-3-yl)acetamide] | 15.4 | 15.4 | – | – | – | – | –
CC(=O)N[C@H]1[C@H](Oc2ccc3cnccc3c2)O[C@H](CO)[C@H](O)[C@@H]1O [AM2007, N-((2S,3R,4R,5R,6R)-4,5-dihydroxy-6-(hydroxymethyl)-2-(isoquinolin-6-yloxy)tetrahydro-2H-pyran-3-yl)acetamide] | 12.6 | 12.6 | – | – | – | – | –
CC(=O)N[C@H]1[C@H](Oc2ccccc2-c2cccc(O)c2)O[C@H](CO)[C@H](O)[C@@H]1O [AM2021, N-((2S,3R,4R,5R,6R)-4,5-dihydroxy-2-((3′-hydroxy-[1,1′-biphenyl]-2-yl)oxy)-6-(hydroxymethyl)tetrahydro-2H-pyran-3-yl)acetamide] | 17.7 | 17.7 | – | – | – | equal or slightly reduced potency | 0.7
CC(=O)N[C@H]1[C@H](Oc2ccccc2-c2cccc(F)c2)O[C@H](CO)[C@H](O)[C@@H]1O [AM2028, N-((2S,3R,4R,5R,6R)-2-((3′-fluoro-[1,1′-biphenyl]-2-yl)oxy)-4,5-dihydroxy-6-(hydroxymethyl)tetrahydro-2H-pyran-3-yl)acetamide] | 11.8 | 11.8 | – | – | – | equal or slightly reduced potency | 1.48
COc1cccc(-c2ccccc2O[C@@H]2O[C@H](CO)[C@H](O)[C@H](O)[C@H]2NC(C)=O)c1 [AM2029, N-((2S,3R,4R,5R,6R)-4,5-dihydroxy-6-(hydroxymethyl)-2-((3′-methoxy-[1,1′-biphenyl]-2-yl)oxy)tetrahydro-2H-pyran-3-yl)acetamide] | 15.5 | 15.5 | – | – | – | equal or slightly reduced potency | 2
CC(=O)N[C@H]1[C@H](Oc2ccccc2-c2cccc([N+](=O)[O-])c2)O[C@H](CO)[C@H](O)[C@@H]1O [AM2030, N-((2S,3R,4R,5R,6R)-4,5-dihydroxy-6-(hydroxymethyl)-2-((3′-nitro-[1,1′-biphenyl]-2-yl)oxy)tetrahydro-2H-pyran-3-yl)acetamide] | 9.25 | 9.25 | – | – | – | equal or slightly reduced potency | 2.66
CC(=O)N[C@H]1[C@H](Oc2ccccc2-c2cccc(C(=O)N(C)C)c2)O[C@H](CO)[C@H](O)[C@@H]1O [AM2032, 2′-(((2S,3R,4R,5R,6R)-3-acetamido-4,5-dihydroxy-6-(hydroxymethyl)tetrahydro-2H-pyran-2-yl)oxy)-N,N-dimethyl-[1,1′-biphenyl]-3-carboxamide] | -3.61 | -3.61 | – | – | – | equal or slightly reduced potency | 3.13
